{"source": "patent US20230071557A1", "about": "“STABLE PHARMACEUTICAL COMPOSITIONS OF ROPINIROLE” (ORION CORPORATION, priority 2020, published 2023)", "origin": "cited, not measured here", "tested_on": "dogs", "settings": "aqueous eye drop solution comprising 10 or 40 mg/ml of ropinirole hydrochloride", "note": "Counter-ions that a name gives are not always drawn.", "data": [{"compound": "CCCN(CCC)CCc1cccc2c1CC(=O)N2", "note": "[ropinirole hydrochloride]", "values": [{"measurement": "Vomiting (emesis) in dogs", "result": "produced vomiting rapidly and consistently"}]}]}
